The record followed here is patent publication US9944968B2, “Control of protein glycosylation by culture medium supplementation and cell culture process parameters” (Biogen MA Inc., priority 2013, dated 2018).

Where two headings read alike, the source gives them in different places.

In one data set the test system is BIIB603 cell line. The data set is described as follows: BIIB603 shake flask fed-batch with MPA or acMPAG: afucosylation (N-glycan analysis). The data set is classed as cell-based. To be noted: BIIB603 shake flasks; MPA 20, 40 μM or acMPAG 20 μM dosed day 6; 4 more days at 31 °C; FIG. 18. On the procedure: FIG. 18. Impact of Mycophenolic acid (MPA) and Mycophenolic acid acyl glucuronide (acMPAG) on afucosylation in BIIB603 cell line. The cells were scaled up to 5 L BR for fed-batch production process. On day 5, temperature was shifted from 37° C. to 31° C. On day 6, cell culture was drained from the bioreactor and divided into several 500 mL shake flasks with 100 mL working volume and then dosed with various amounts of MPA (0 μM, 20 μM, 40 μM) or acMPAG (20 μM) in duplicates. After dosing, the shake flasks were cultured another 4 days at 31° C., 5% CO2 and 150 rpm with fed-batch process and then harvested. The supernatant was sent for PQ assay (N-glycan analysis) for afucosylation level.
BIIB603 cell line was scaled up to 5 L BR for fed-batch production process. On day 5, temperature was shifted from 37° C. to 31° C. On day 6, cell culture was drained from the bioreactor and divided into several 500 mL shake flasks with 100 mL working volume and then dosed with various amounts of MPA (0 μM, 20 μM, 40 μM) or acMPAG (20 μM) in duplicates. After dosing, the shake flasks were cultured another 4 days at 31° C., 5% CO2 and 150 rpm with fed-batch process and then harvested. The supernatant was sent for PQ assay (N-glycan analysis) for afucosylation level.

The test system of a further data set is DUXB11 cell line. The data set is described as follows: DUXB11 3 L bioreactor with insulin additions and fixed MPA: afucosylation, glycosylation map, titer. The data set is classed as cell-based, Chinese hamster. Set-up: M3F / Afucosyl / G0 / G0F / MS / G1 + G1′ / G1F + G1F′ / M6 / G2 / G2F: unit not given here. To be noted: for Afucosyl / G0 / G0F / G1 + G1′ / G1F + G1F′ / G2 / G2F / M3F / M6 / MS: with MPA, DUXB11; for Afucosylation (%) / Titer: fixed 5 μM MPA, DUXB11 3 L bioreactor. On the procedure:
FIG. 11. […] Fixed 5 μM of MPA was added on Day 9 in all bioreactors and harvested on the same day. Filtered supernatant samples were analyzed for titer and N-glycan analysis for afucosylation level.
The culture conditions are described in FIG. 11.

Another data set relates to FcgRIII a. The data set is described as follows: FcgRIIIa binding of product after insulin and MPA supplement on DUXB11.
Data set [1] concerns DUXB11 cell lines. The data set is classed as cell-based, Chinese hamster. To be noted: for Cell viability (%): Chinese hamster, 3 days. As to the method: FIG. 7A and FIG. 7B. Impact of Mycophenolic acid (MPA) on afucosylation in cell lines (FIG. 7A and FIG. 7B showing two different cell lines) derived from DUXB11. The cells were cultured in 3 L bioreactor respectively for 7 days following the platform process. On day 7, the cells were divided into several 1 L shake flasks with 200 mL working volume and then dosed with various amounts of MPA (0 μM, […], 10 μM, 30 μM). After dosing MPA, shake flask fed-batch is conducted until day-3 harvest. Filtered supernatant samples were analyzed for titer and N-glycan analysis for afucosylation level.
DUXB11 cell lines (cell line #1 and #2) were cultured in 3 L bioreactor respectively for 7 days following the platform process. On day 7, the cells were divided into several 1 L shake flasks with 200 mL working volume and then dosed with various amounts of MPA (0 μM, 1 μM, 10 μM, 30 μM). After dosing MPA, shake flask fed-batch is conducted until day-3 harvest. Filtered supernatant samples were analyzed for titer and N-glycan analysis for afucosylation level. […] However, the titer was decreased (side effect) (see Table 8 below and FIG. 7A and FIG. 7B). […] The impact on viability became much more significant in bioreactor process (see Example 9 below).

The test system of data set [2] is DUXB11 cell lines. In kind it is cell-based, Chinese hamster. The following applies: for impact on afucosylation: 3 L bioreactor, harvest D13; for Afucosylation (%) / Titer: MPA supplementation Day 5, DUXB11. As to the method:
FIG. 8. Impact of the timing of supplementation with Mycophenolic acid (MPA) on afucosylation of DUXB11 cell line in 3 L bioreactors (A, B, C, and D) with the same seed density following the platform process. When the viable cell density (VCD) reached its peak (Day 5 in the study), fixed 5 μM of MPA was added in bioreactor A. At the same time, MPA was added in bioreactor B based on the VCD value to make sure MPA per cell is the same as the platform process to eliminate the possible impact of different cell growth. The next day (one day past peak VCD day, D6 in this study), fixed 5 μM of MPA was added in bioreactor C and MPA was added in bioreactor D based on its D6 VCD value to make sure MPA per cell is the same as the platform process to eliminate the possible impact of different cell growth. All bioreactors were harvested on D13. The filtered supernatant samples were analyzed for titer and N-glycan analysis for afucosylation level.
DUXB11 cell lines were cultured in 3 L bioreactor respectively following the platform process. On day 6, various amounts of MPA were dosed (0 μM and 5 μM). After dosing MPA, bioreactors were kept running until they were harvested on day 13. Filtered supernatant samples were analyzed for titer and N-glycan analysis for afucosylation level.
The culture conditions are described in FIG. 8. […] In addition, afucosylation level was increased with peak VCD day MPA addition (fixed 5 μM MPA vs. VCD based MPA addition).
The effect of temperature shift and supplementation with MPA is provided in FIG. 12, FIG. 13, FIG. 14A, and FIG. 14B and Table 11 below.

[3] abbreviates: 1 μM MPA dosed day 7, DUXB11 shake flask, harvest 3 days after dosing.
The mark [4] stands for this setting: 10 μM MPA dosed day 7, DUXB11 shake flask, harvest 3 days after dosing.
[5] abbreviates: 30 μM MPA dosed day 7, DUXB11 shake flask, harvest 3 days after dosing.
The mark [6] stands for this setting: increasing MPA dosing concentration (1, 10, 30 μM), shake flask.

For the compound `COc1c(C)c2c(c(O)c1C/C=C(\C)CCC(=O)O[C@@H]1O[C@H](C(=O)O)[C@@H](O)[C@H](O)[C@H]1O)C(=O)OC2` [acMPAG, mycophenolic acid acyl glucuronide], the afucosylation level entry in the data set with BIIB603 cell line was “increased the afucosylation level to similar extent”.

Consider insulin, for which, in the data set with DUXB11 cell line (2.5 mg/L ins in feed 1), the Afucosyl was 4.9, the G0 is given as 3.9, the G0F worked out at 68.1 and the “G1 + G1′” value turned out to be 0.9. In the data set with DUXB11 cell line (2.5 mg/L ins in feed 1), the “G1F + G1F′” value amounted to 20.2, the G2 turned out to be 0.0, the G2F came to 1.8 and the M3F is given as 1.0. Also, in the data set with DUXB11 cell line (2.5 mg/L ins in feed 1), the M6 is 0.90 and the MS came out at 2.2. Also, in the data set on DUXB11 cell line (10 mg/L ins in feed 1), the Afucosyl amounted to 6.2, the G0 amounted to 5.1, the G0F came to 64.9 and the “G1 + G1′” value was 1.1. In the data set on DUXB11 cell line (10 mg/L ins in feed 1), the “G1F + G1F′” value is listed as 21.7, the G2 came out at 0.0, the G2F stood at 2.3 and the M3F is on record as 0.9. Also, in the data set on DUXB11 cell line (10 mg/L ins in feed 1), the M6 came to 0.9 and the MS is listed as 2.2. Moreover, in the data set with DUXB11 cell line (30 mg/L ins in feed 1), the G0 was 6.7, the G0F came to 62.5, the “G1 + G1′” value is recorded as 1.3 and the “G1F + G1F′” value came out at 21.1. Besides, in the data set on DUXB11 cell line (30 mg/L ins in feed 1), the G2 stood at 0.0, the G2F was found to be 2.3, the M3F is 0.9 and the M6 was 1.1. In addition, in the data set on DUXB11 cell line (30 mg/L ins in feed 1), the MS worked out at 2.4. Further, in the data set with DUXB11 cell line (60 mg/L ins in feed 1), the G0 is listed as 6.4, the G0F is on record as 61.4, the “G1 + G1′” value came out at 1.4 and the “G1F + G1F′” value stood at 22.9. In the data set on DUXB11 cell line (60 mg/L ins in feed 1), the G2 was 0.0, the G2F came out at 2.6, the M3F is 0.8 and the M6 was found to be 0.9. In the data set on DUXB11 cell line (60 mg/L ins in feed 1), the MS is given as 2.5. Besides, the afucosylation entry in the data set on DUXB11 cell line (increasing insulin concentration with same MPA supplementation, fed-batch culture) is given as “increased afucosylation”. In the data set with DUXB11 cell line (total insulin added 11 mg/L), the “Afucosylation (%)” value was found to be 4.9% and the “Titer” value is on record as 2.3 g/L. Besides, in the data set with DUXB11 cell line (total insulin added 13 mg/L), the “Afucosylation (%)” value is 6.2% and the “Titer” value is 2.6 g/L. Moreover, in the data set on FcgRIII a (2.5 mg/L ins in feed 1, with MPA), the FcgRIII a binding was 60. For the same compound, in the data set on FcgRIII a (10 mg/L ins in feed 1, with MPA), the FcgRIII a binding was found to be 71. Moreover, in the data set on FcgRIII a (30 mg/L ins in feed 1, with MPA), the FcgRIII a binding is 100. Moreover, the FcgRIII a binding with FcgRIII a (60 mg/L ins in feed 1, with MPA) was 100.

As to `COc1c(C)c2c(c(O)c1C/C=C(\C)CCC(=O)O)C(=O)OC2` [MPA, mycophenolic acid], the impact on viability entry in the data set on DUXB11 cell lines [1] is reported as “not significant”. The “Afucosylation (%)” value was 3.85% in the data set with DUXB11 cell lines [1] (setting [3]); 4.9% in the data set on DUXB11 cell lines [1] (setting [4]); 4.4% in the data set on DUXB11 cell lines [1] (setting [5]); 11.9% in the data set with DUXB11 cell lines [2] (temperature 35 to 30 °C); 10.7% in the data set on DUXB11 cell lines [2] (temperature 35 to 33 °C). Further, the “Titer” value in the data set on DUXB11 cell lines [1] (setting [3]) is 0.136 g/L; in the data set on DUXB11 cell lines [1] (setting [4]) it was 0.106 g/L; in the data set on DUXB11 cell lines [1] (setting [5]) it was 0.105 g/L; in the data set on DUXB11 cell lines [1] (setting [6]) it was “decreased”; in the data set with DUXB11 cell lines [2] (temperature 35 to 30 °C), 1.5 g/L; in the data set on DUXB11 cell lines [2] (temperature 35 to 33 °C), 1.8 g/L. In addition, the “Cell viability (%)” value is given as 62% with DUXB11 cell lines [1] (1 μM), 61% in the data set on DUXB11 cell lines [1] (10 μM) and 62% in the data set on DUXB11 cell lines [1] (30 μM). Moreover, the afucosylation level entry in the data set on DUXB11 cell lines [1] (setting [6]) is “increase”; in the data set with BIIB603 cell line, “increase in the afucosylation level”. In addition, the impact on afucosylation result is given as “non-significant impact” in the data set with DUXB11 cell lines [2] (MPA added on a different day than peak VCD (one day past, D6)) and “significant impact” in the data set with DUXB11 cell lines [2] (MPA added on the day of peak VCD (Day 5), fixed 5 μM or VCD based).
